Read-outs that look alike come from different tables or passages of the source. Each block holds one compound with its values, some of them ahead of it.
What was measured:
[1] = target: T1, TvG6PD::6PGL (Trichomonas vaginalis, UniProt A2DBT5); conditions: cited from earlier work
[2] = target: T2, GlG6PD::6PGL (Giardia intestinalis, UniProt A8BWM5); test: GlG6PD::6PGL enzyme inactivation assay; format: biochemical, G. lamblia; conditions: for Inhibition (%) at 400 µM of GlG6PD::6PGL: 400 µM compound, 0.2 mg/mL enzyme, 37 °C, 2 h, relative to enzyme without inhibitor; for inhibition at 400 µM: read-out: Inhibition (%) at 400 µM of GlG6PD::6PGL; for kinact/KI: read-out: second-order inactivation rate constant k2, GlG6PD::6PGL
Description: (§1) The G6PD domain activity of the recombinant proteins was spectrophotometrically measured at 25 °C by monitoring the reduction in NADP^+ at 340 nm. The assay was performed with 1 mL of standard reaction mixture containing 0.1 M Tris-HCl, 0.01 M MgCl2, 1 mM NADP^+, and 1 mM glucose-6-phosphate (G6P) at pH 8.3. The reaction was initiated with the addition of 1 µg/mL fused GlG6PD::6PGL or TvG6PD::6PGL enzymes.
(§2) Inactivation assays were performed with the compounds against GlG6PD::6PGL and TvG6PD::6PGL. Thus, all the compounds were activate immediately before the experiments as previously reported and diluted using dimethyl sulfoxide (DMSO) as a solvent. For the assay, 0.2 mg/mL of the enzyme was incubated with the compounds at a concentration of 400 µM at 37 °C for 2 h. Following incubation, the activity was measured with a standard reaction mixture. Only the compounds that reduced the activity of the enzyme by more than 50% were used in the subsequent experiments.
(§3) Then, aliquots from these incubations were withdrawn, and the residual activity was determined under standard conditions. The results are reported as the percentage of residual activity (using the activity of each enzyme incubated without any compound as 100% activity) versus the compound’s concentration.
(§4) The second-order rate constants of inactivation for each one of the compounds were calculated by obtaining the pseudo-first-order rate constant (k1) values. Pseudo-first-order inactivation rate constants (k1) were obtained at four or five fixed concentrations for each of the compounds. At the indicated times, aliquots were withdrawn to determine residual activity. Then, residual activity data were fitted using the monoexponential decay equation, as previously reported. The previously obtained k1 values were replotted against the concentrations of each compound, and the slope created by these plots corresponds to the second-order inactivation constant k2 (M^−1·s^−1).

[3] = target: T1, TvG6PD::6PGL; test: TvG6PD::6PGL enzyme inactivation assay; format: biochemical, T. vaginalis; conditions: for inhibition at 400 µM: read-out: Inhibition (%) at 400 µM of TvG6PD::6PGL, 400 µM compound, 0.2 mg/mL enzyme, 37 °C, 2 h, relative to enzyme without inhibitor; for kinact/KI: read-out: second-order inactivation rate constant k2, TvG6PD::6PGL, slope of k1 versus compound concentration
Description: as §1, §2, §3, §4

[4] = system: G. lamblia; test: In vitro antigiardial activity; format: cell-based; conditions: for selectivity index (SI), G. lamblia: Caco-2 CC50 relative to G. lamblia IC50
[5] = system: GlTIM; design: method as in PMID 32882836; conditions: cited from earlier work; for IC50: read-out: IC50 TIM enzyme from G. lamblia
[6] = system: G. lamblia; design: method as in PMID 32882836; conditions: previous study; cited from earlier work
[7] = system: T. vaginalis trophozoites; test: Anti-T. vaginalis assay (trophozoite viability, trypan blue); format: cell-based; conditions: for reduction of T. vaginalis trophozoite viability at 6 µM / reduction of T. vaginalis trophozoite viability at 100 μM / IC50: 24 h; for reduction of T. vaginalis trophozoite viability at 100 μM: relative to negative control; for selectivity index (SI), T. vaginalis: Caco-2 CC50 relative to T. vaginalis IC50; for IC50: Trichomonas vaginalis, trophozoites, 37 °C
Description: The isolate T. vaginalis, Donne ATCC 30236 was axenically grown in trypticase–yeast extract–maltose (TYM) medium (pH 6.0), supplemented with 10% sterile horse serum (previously inactivated at 56 °C for 30 min), and incubated at 37 °C under microaerobic conditions. The trophozoites were axenically maintained, and a trypan blue (0.4%) exclusion assay was performed to ensure that the minimum viability of 95% and logarithmic growth phase were achieved before proceeding to the antiparasitic assay.
Drug susceptibility assays were performed to analyze the trichomonacidal potential of O2N-BZM7 and O2N-BZM9 compounds against T. vaginalis, as previously described. The compounds were diluted in dimethylsulfoxide (DMSO) as a vehicle for solubilization. […] Trophozoites were adjusted to an initial density of 2.6 × 10^5 trophozoites/mL of TYM medium. Then, 1.5 mL tubes were seeded with […] of T. vaginalis trophozoites/tubes (2.6 × 10^5 trophozoites/mL), O2N-BZM7 and O2N-BZM9 were added, and tubes were incubated at 37 °C with 5% CO2 for 24 h. After incubation, trophozoites were counted with trypan blue (0.4%) (1:1, v/v) on a Neubauer chamber to determine the trophozoites’ motility, morphology, and viability. Three controls were used in each assay: a negative control containing only trophozoites, a 0.06% DMSO control, and a positive control containing MTZ at 100 μM (Sigma-Aldrich, St. Louis, MO, USA). The IC50 was calculated using the GraphPad Prism 8.0 software Inc. version 8.0.2 (263) (San Diego, CA, USA).

[8] = target: T2, GlG6PD::6PGL; test: Intrinsic fluorescence of GlG6PD::6PGL with compounds; design: species or system G. lamblia; conditions: compound at IC50 concentration, 2 h, 37 °C; for maximum intrinsic fluorescence intensity of GlG6PD::6PGL: control 874 a.u.
Description: (§5) The effect of the compounds on the tertiary structure (3D) of the GlG6PD::6PGL and TvG6PD::6PGL proteins was evaluated by monitoring the changes in the intrinsic and extrinsic fluorescence using a Perkin-Elmer LS-55 spectrofluorometer (Perkin-Elmer, Wellesley, MA, USA). […] Following incubation, the proteins were excited at 280 nm, and we recorded the emission spectra from 310 to 500 nm with a scan speed of 150 nm/min using excitation and emission slits of 4 and 8 nm, respectively. The spectra of the blanks (buffer phosphate containing each of the compounds) were subtracted from all the obtained spectra that contained the protein, and the spectrum of the enzyme without the compound was used as control. The final spectrum for each compound was the average of five scans.

[9] = target: T1, TvG6PD::6PGL; test: Intrinsic fluorescence of TvG6PD::6PGL with compounds; design: species or system T. vaginalis; conditions: compound at IC50 concentration, 2 h, 37 °C; native protein 673 a.u.
Description: as §5

[10] = target: T2, GlG6PD::6PGL; test: Circular dichroism of GlG6PD::6PGL with compounds; design: species or system G. lamblia; conditions: compound at IC50 concentration, 2 h, 37 °C, protein 0.5 mg/mL
Description: One control containing only enzyme was used in each assay. Then, the proteins were loaded in a quartz cell with a 0.1 cm path length, and spectral scans were recorded at 25 °C in ultraviolet circular dichroism (UV-CD) ranging from 200 to 260 nm. The spectra of the blanks (buffer P solution containing each of the compounds) were subtracted from all the obtained spectra that contained the protein. All the CD data were reported as molar ellipticity. The experiments were performed in triplicate.

[11] = system: Caco-2 cells; conditions: read-out: Caco-2 CC50, metronidazole; cited from earlier work

T2 sequence (A8BWM5 entry or part of it): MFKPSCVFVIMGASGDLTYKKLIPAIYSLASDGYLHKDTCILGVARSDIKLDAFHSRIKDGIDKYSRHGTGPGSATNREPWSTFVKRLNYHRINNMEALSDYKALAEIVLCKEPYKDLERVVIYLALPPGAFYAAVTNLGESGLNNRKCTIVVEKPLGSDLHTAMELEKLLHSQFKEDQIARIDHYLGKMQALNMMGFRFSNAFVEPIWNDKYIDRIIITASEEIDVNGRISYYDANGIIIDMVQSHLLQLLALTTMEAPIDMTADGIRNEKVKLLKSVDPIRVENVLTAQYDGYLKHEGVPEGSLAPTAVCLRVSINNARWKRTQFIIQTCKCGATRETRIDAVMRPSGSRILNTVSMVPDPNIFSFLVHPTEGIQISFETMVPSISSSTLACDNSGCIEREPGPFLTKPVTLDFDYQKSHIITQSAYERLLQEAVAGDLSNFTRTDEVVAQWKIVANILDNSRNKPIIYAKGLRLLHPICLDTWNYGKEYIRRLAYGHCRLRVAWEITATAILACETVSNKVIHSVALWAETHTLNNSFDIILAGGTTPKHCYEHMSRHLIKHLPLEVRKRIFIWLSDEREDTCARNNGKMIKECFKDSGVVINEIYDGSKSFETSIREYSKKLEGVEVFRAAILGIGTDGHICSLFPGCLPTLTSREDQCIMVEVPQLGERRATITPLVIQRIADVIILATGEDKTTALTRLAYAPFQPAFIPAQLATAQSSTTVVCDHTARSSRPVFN
T1 sequence (A2DBT5 entry or part of it): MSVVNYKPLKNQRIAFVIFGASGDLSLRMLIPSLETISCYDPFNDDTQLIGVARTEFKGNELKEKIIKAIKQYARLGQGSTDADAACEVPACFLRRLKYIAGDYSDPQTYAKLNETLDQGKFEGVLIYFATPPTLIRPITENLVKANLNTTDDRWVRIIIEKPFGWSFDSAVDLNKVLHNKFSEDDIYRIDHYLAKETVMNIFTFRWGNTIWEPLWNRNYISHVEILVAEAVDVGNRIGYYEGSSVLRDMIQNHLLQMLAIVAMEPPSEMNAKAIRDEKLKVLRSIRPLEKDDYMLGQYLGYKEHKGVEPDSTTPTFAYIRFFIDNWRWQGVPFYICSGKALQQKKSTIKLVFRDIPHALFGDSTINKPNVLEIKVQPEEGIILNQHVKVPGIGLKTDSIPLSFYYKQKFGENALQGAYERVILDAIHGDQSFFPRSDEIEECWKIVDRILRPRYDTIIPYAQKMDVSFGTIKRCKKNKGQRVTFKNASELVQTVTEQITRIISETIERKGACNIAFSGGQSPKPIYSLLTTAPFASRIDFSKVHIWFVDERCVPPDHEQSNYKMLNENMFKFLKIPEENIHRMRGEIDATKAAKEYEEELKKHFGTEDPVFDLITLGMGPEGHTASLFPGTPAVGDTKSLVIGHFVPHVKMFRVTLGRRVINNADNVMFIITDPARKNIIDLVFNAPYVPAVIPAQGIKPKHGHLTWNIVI

Compound: O=C(Nc1ccc(Cl)cc1)Nc1ncc([N+](=O)[O-])s1 [CNZ-3]
k2 for TvG6PD::6PGL protein, in-house library compounds [1]: 0.66 M⁻¹ s⁻¹

Compound: Cc1c(OCC(F)(F)F)ccnc1C[S+]([O-])c1nc2ccc(N)cc2[nH]1 (stereo not shown) [Compound H2N-BZM6, 2-{[3-methyl-4-(2,2,2-trifluoroethoxy)pyridin-2-yl]methanesulfinyl}-1H-benzimidazol-6-amine]
Inhibition (%) at 400 µM of GlG6PD::6PGL [2]: complete activity of the GlG6PD::6PGL enzyme was eradicated
inhibition at 400 µM [2]: 100 ± 5%
inhibition at 400 µM [3]: 12 ± 5%

Compound: O=[N+]([O-])c1ccc2nc([S+]([O-])Cc3ccccn3)[nH]c2c1 (stereo not shown) [Compound O2N-BZM7, 6-nitro-2-[(pyridin-2-yl)methanesulfinyl]-1H-benzimidazole]
selectivity index (SI), G. lamblia [4]: 45
k2 for inactivation of GlTIM enzyme [5]: 3.2 M⁻¹ s⁻¹
IC50 [5]: 12 µM
Inhibition (%) at 400 µM of GlG6PD::6PGL [2]: complete activity of the GlG6PD::6PGL enzyme was eradicated
inhibition at 400 µM [2]: 100 ± 5%
kinact/KI [2]: 1.9 M⁻¹ s⁻¹
kinact/KI [3]: 0.85 M⁻¹ s⁻¹
IC50 [6]: 14 µM
reduction of T. vaginalis trophozoite viability at 6 µM [7]: 52%
reduction of T. vaginalis trophozoite viability at 100 μM [7]: 100%
selectivity index (SI), T. vaginalis [7]: 106
IC50 [7]: 6 µM
reduction of intrinsic fluorescence of GlG6PD::6PGL compared to control [8]: 62%
maximum intrinsic fluorescence intensity of GlG6PD::6PGL [8]: 329 a.u.
maximal intrinsic fluorescence intensity of TvG6PD::6PGL [9]: 415 a.u.
change of secondary structure (CD spectra) of GlG6PD::6PGL [10]: did not induce alterations of the secondary structure

Compound: Cc1c(OCC(F)(F)F)ccnc1C[S+]([O-])c1nc2ccc([N+](=O)[O-])cc2[nH]1 (stereo not shown) [Compound O2N-BZM9, 2-{[3-methyl-4-(2,2,2-trifluoroethoxy)pyridin-2-yl]methanesulfinyl}-6-nitro-1H-benzimidazole]
selectivity index (SI), G. lamblia [4]: 39
k2 for inactivation of GlTIM enzyme [5]: 2.8 M⁻¹ s⁻¹
IC50 [5]: 20 µM
IC50 [2]: 15 µM
Inhibition (%) at 400 µM of GlG6PD::6PGL [2]: complete activity of the GlG6PD::6PGL enzyme was eradicated
inhibition at 400 µM [2]: 100 ± 5%
kinact/KI [2]: 6.1 M⁻¹ s⁻¹
inhibition at 400 µM [3]: > 70%
kinact/KI [3]: 1.62 M⁻¹ s⁻¹
IC50 [6]: 17 µM
reduction of T. vaginalis trophozoite viability at 6 µM [7]: 52%
reduction of T. vaginalis trophozoite viability at 100 μM [7]: 100%
selectivity index (SI), T. vaginalis [7]: 160
IC50 [7]: 4 µM
reduction of intrinsic fluorescence of GlG6PD::6PGL compared to control [8]: 62%
maximum intrinsic fluorescence intensity of GlG6PD::6PGL [8]: 329 a.u.
maximal intrinsic fluorescence intensity of TvG6PD::6PGL [9]: 102 a.u.
change of secondary structure (CD spectra) of GlG6PD::6PGL [10]: did not induce alterations of the secondary structure

Compound: [O-][S+](Cc1ccccn1)c1nc2ccccc2[nH]1 (stereo not shown) [H-BZM1, 2-[(pyridin-2-yl)methanesulfinyl]-1H-benzimidazole]
inhibition at 400 µM [2]: 62 ± 5%
inhibition at 400 µM [3]: 7 ± 5%

Compound: COc1c(C)cnc(C[S+]([O-])c2nc3ccccc3[nH]2)c1C (stereo not shown) [H-BZM2, 2-[(4-methoxy-3,5-dimethylpyridin-2-yl)methanesulfinyl]-1H-benzimidazole]
IC50 [5]: 37 µM
IC50 [2]: 24 µM
Inhibition (%) at 400 µM of GlG6PD::6PGL [2]: complete activity of the GlG6PD::6PGL enzyme was eradicated
inhibition at 400 µM [2]: 100 ± 5%
kinact/KI [2]: 3.3 M⁻¹ s⁻¹
inhibition at 400 µM [3]: 47 ± 5%

Compound: O=C(COc1ccc(/C=C2\SC(=O)NC2=O)cc1)NC1CCN(Cc2ccccc2)CC1 [MCC-7]
k2 for TvG6PD::6PGL protein, in-house library compounds [1]: 0.26 M⁻¹ s⁻¹

IC50 ([4]; Giardia duodenalis, no reference given, read-out: G. lamblia IC50, metronidazole positive control): 4.8 µM
IC50 [7]: 12 µM
Compound: Cc1ncc([N+](=O)[O-])n1CCO [Metronidazole, reference compound]
selectivity index (SI), G. lamblia [4]: 3.9
CC50 [11]: 19 µM
selectivity index (SI), T. vaginalis [7]: 1.6

Reference: article PMC9781444, “Pyridyl Methylsulfinyl Benzimidazole Derivatives as Promising Agents against Giardia lamblia and Trichomonas vaginalis” (Molecules, 2022)
